Measurements published in patent US4642332A, “Effective hormonal peptides: D-3-Pal^6 -LHRH” (The Board of Regents, The University of Texas System, priority 1985, dated 1987).

What was measured:
[1] = system: advanced prostatic carcinoma; set-up: clinical effect in patients with urinary obstruction: dose or concentration left out as unconfirmed; settings: subcutaneously, cited from earlier work
men = settings: in men, after chronic administration; cited from earlier work
[2] = system: pituitary cells from 21 day old rats; assay: In vitro pituitary incubate assay (release of LH and FSH); format: cell-based, rat; settings: for FSH ng/ml medium ± SEM / LH ng/ml medium ± SEM: Table V, mean of 9
Method: The data in Tables IV and V are from the in vitro assay of the peptides with the pituitary incubate. This assay measures the release of LH and FSH in an in vitro system with pituitary cells from 21 day old rats. See, Bowers, C. Y. et al. on the inhibitory effects of leutinizing hormone releasing hormone analogs. Endocrinology, 106: 674 (1980).
The abbreviations are as follows: sc-subcutaneous, SEM-standard error of the mean; NS-not significant; ng-nanogram, and ml-milliliter. The p value represents the population coefficient .rho.(rho) which signifies whether a sample coefficient is significant or a chance deviation from zero.

21 day old female rats = assay: In vivo assay in rats for release of LH and FSH; set-up: species or system rat
Method: In vivo rat assay performed by a modification of the method of Bowers, C. Y. et al. Endocrinology, 106, 674 (1980). 21 day old female rats were injected sc with saline or peptide. Blood samples for the RIAs of LH and FSH were collected at +15, +60, +120, or +180 minutes. (Tables VI-XI).

[3] = Table XI, 150 ng sc, +2 hrs, mean 5-6
[4] = Table XI, 150 ng sc, +3 hrs, mean 5-6

In the case of `CC(C)C[C@H](NC(=O)[C@@H](Cc1c[nH]c2ccccc12)NC(=O)[C@H](Cc1ccc(O)cc1)NC(=O)[C@H](CO)NC(=O)[C@H](Cc1c[nH]c2ccccc12)NC(=O)[C@H](Cc1c[nH]cn1)NC(=O)[C@@H]1CCC(=O)N1)C(=O)N[C@@H](CCCNC(=N)N)C(=O)N1CCC[C@H]1C(=O)NCC(N)=O` [D-Trp^6 -LHRH, pyroGlu--His--Trp--Ser--Tyr--D-Trp--Leu--Arg--Pro--Gly--NH2], the “clinical effect in patients with urinary obstruction” value ([1]; daily doses (so in the source)) is listed as “noticeable clinical improvement”, the “pain from bone metastases in patients with more advanced prostatic disease” value ([1]; daily doses of 100 g and 50 g, respectively (so in the source)) is listed as “relieved” and the Leydig cell function (men) is listed as “suppression of Leydig cell function”. For the same compound, the “serum levels of testosterone, dihydrotestosterone and estradiol” value (men) was “decreases”, the “FSH ng/ml medium ± SEM” value ([2]; dosage .01 ng/ml medium) was 450 ± 64 ng/mL and the “LH ng/ml medium ± SEM” value ([2]; dosage .01 ng/ml medium) was 68 ± 31 ng/mL. For the same compound, the “FSH ng/ml medium ± SEM” value ([2]; dosage .03 ng/ml medium) was 929 ± 207 ng/mL, the “LH ng/ml medium ± SEM” value ([2]; dosage .03 ng/ml medium) was 209 ± 74 ng/mL and the “FSH ng/ml medium ± SEM” value ([2]; dosage .10 ng/ml medium) was 1714 ± 224 ng/mL. The “LH ng/ml medium ± SEM” value ([2]; dosage .10 ng/ml medium) was 646 ± 69 ng/mL, the “potency, D-Qal^6 -LHRH compared with D-Trp^6 -LHRH” value ([2]; comparable assays, statement in words) was “essentially equipotent” and the “LH ng/ml Serum ± SEM ± 60 min” value (21 day old female rats; Table VII, dosage 10 mg/rat sc (so in the source)) was 31 ± 6 ng/mL. For the same compound, the “LH ng/ml Serum ± SEM ± 15 min” value (21 day old female rats; Table VII, dosage 100 mg/rat sc (so in the source), ± 15 min) was 51 ± 10 ng/mL, the “LH ng/ml Serum ± SEM ± 60 min” value (21 day old female rats; Table VII, dosage 100 mg/rat sc (so in the source)) was 259 ± 34 ng/mL and the “+2 hrs LH ± SEM ng/ml serum” value (21 day old female rats; [3]) was 230 ± 41 ng/mL. The “FSH ± SEM ng/ml serum (+2 hrs)” value (21 day old female rats; [3]) was 2332 ± 388 ng/mL, the “+3 hrs LH ± SEM ng/ml serum” value (21 day old female rats; [4]) was 117 ± 9 ng/mL and the “FSH ± SEM ng/ml serum (+3 hrs)” value (21 day old female rats; [4]) was 2065 ± 151 ng/mL.
